Read-outs that look alike come from different tables or passages of the source.
Legend:
[1] = cited from earlier work
[2] = prior-art preparations, powder; cited from earlier work
[3] = test system: macrophages; conditions: cited from earlier work
[4] = Clinical course of Patient I. (prostatic adenoma); assay type: in vivo, human
Procedure: Patient one.
Was hospitalized with complaints of difficult urination and urges to urinate.
Diagnosis: stage 1I prostatic adenoma.
Two courses of therapy with […] sodium salt dihydrate were performed by injections for 20 and 15 injections, respectively, with a 30-day interval between the injections. Doses of the preparation were from 100 to 500 mg in 1-5 ml of distilled water correspondingly.

[5] = doses 20-1500 mg
[6] = Patient G.
Procedure: Patient two.
Was hospitalized with diagnosis of erysipelas of the left forearm, edema, and exacerbation of psoriasis (temperature at hospitalization was 39.9° C.).
Tameril was injected daily in a single dose of 200 mg in 2 ml water.

[7] = Patient S., after therapy (300 mg injection 5 days, then 100 mg perorally 2 times a day)
[8] = Patient S., after therapy (300 mg injection 5 days, then 100 mg perorally 2 times a day); remark: listed apart in the source
[9] = test system: macrophages; conditions: inflammatory diseases
[10] = test system: macrophages; conditions: patients with impaired cellular immunity
[11] = Patient S.
[12] = erysipelas and psoriasis, after therapy (200 mg injection daily, then 100 mg for 5 days)

Nn1[nH]c(=O)c2ccccc2c1=O.O.O.[Na] [2-amino, 2-amino-1,2,3,4-tetrahydrophthalazine-1,4-dione sodium salt dihydrate]
side effects and allergic reactions ([1]; in vivo): does not cause side effects and allergic reactions | effect of longterm treatment ([1]; patients with chronic and other diseases): causes tolerance and decreases the efficiency of therapy | solubility in water [2]: easily soluble in water | effect on macrophages ([3]; inflammatory processes): inactivates macrophages for several hours | effect on macrophages ([3]; patients with impaired cellular immunity, e.g. malignant neoplasms): activates macrophages, interleukins and other acute-phase proteins | size of adenoma ([4]; after the first course of 20 injections): decreased | size of adenoma ([4]; after the second course of 15 injections): remained without further positive dynamic

Nc1cccc2c(=O)[nH][nH]c(=O)c12.[Na] [Tamerit, 5-amino-2,3-dihydrophthalazine-1,4-dione sodium salt]
side effects and allergic reactions [5]: does not cause side effects and allergic reactions | time to disappearance of edema and hyperemia of the left forelimb ([6]; 200 mg injected daily): 4 days | state of the patient ([6]; after 200 mg daily then 100 mg injections for 5 days): satisfactory state | B-lymphocytes [6, 12]: 25.0% | ESR [6, 12]: 16.0 mm/h | Eosinophils [6, 12]: 4.0% | Erythrocytes [6, 12]: 6.9e+12 L⁻¹ | Hemoglobin [6, 12]: 148 g/L | Immunoglobulin A [6, 12]: 2.47 g/L | Immunoglobulin G [6, 12]: 13.7 g/L | Immunoglobulin M [6, 12]: 2.31 g/L | Latex phagocytosis [6, 12]: 83.4% | Leukocytes [6, 12]: 6.2e+09 L⁻¹ | Lymphocytes [6, 12]: 26.3% | Monocytes [6, 12]: 2.0% | Neutrophils: Segmented [6, 12]: 65.5% | Neutrophils: Stab [6, 12]: 5.7% | T-helpers [6, 12]: 31.2% | T-lymphocytes [6, 12]: 60.3% | T-suppressors [6, 12]: 20.1% | TNF [6, 12]: 24.4 | ESR [7]: 13.0 mm/h | Eosinophils [7]: 3.0% | Erythrocytes [7]: 5e+12 L⁻¹ | Hemoglobin [7]: 147 g/L | Leukocytes [7]: 5.5e+09 L⁻¹ | Lymphocytes [7]: 23.0% | Monocytes [7]: 6.0% | Neutrophils: Segmented [7]: 74.0% | Neutrophils: Stab [7]: 6.0% | B-lymphocytes [8]: 24.5% | Immunoglobulin A [8]: 2.20 g/L | Immunoglobulin G [8]: 12.4 g/L | Immunoglobulin M [8]: 2.21 g/L | Latex phagocytosis [8]: 76.2% | T-helpers [8]: 29.5% | T-lymphocytes [8]: 67.0% | T-suppressors [8]: 23.5% | TNF [8]: 22.5 | contents of TNF and acute-phase proteins [9]: decreasing the contents of TNF and acute-phase proteins | function of neutrophilic granulocytes [9]: enhances super-oxidizing function and phagocytic activity of neutrophilic granulocytes | effect on T-lymphocytes [10]: initiates specific reactions of T-lymphocytes | effect on macrophages ([10]; e.g. malignant neoplasms, evident by release of TNF, interleukins, other acute-phase proteins): causes activation of macrophages | state of the patient ([11]; 10 days after beginning of the therapy): satisfactory state | state of the patient (cough, temperature) ([11]; three days after beginning of the therapy): cough disappeared, and temperature returned to normal | state of the patient (urination) ([4]; 10 daily injections of 200 mg after the 2-amino courses): urination was normalized

Nc1cccc2c(=O)[nH][nH]c(=O)c12 [luminol, 5-amino-2,3-dihydrophthalazine-1,4-dione]
medical effectiveness ([1]; in vivo): medically ineffective

— patent publication US20020198208A1, “MEDICINAL PREPARATION AND PROCESS FOR MANUFACTURING THEREOF” (priority 2000, published 2002)
